The source of these data is ChEMBL document CHEMBL1201862, “PubChem BioAssay data set” (2004).

As a reminder, the GI50 is the concentration giving 50% growth inhibition.

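Dose response: 5 concentrations. Exposure: 48 h. Format: 96-well plates. Endpoint: linear interpolation; highest concentration if not reached. The concentration for 50% growth inhibition is given as GI50.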 Active and inactive are the calls of the source. Rule as the data show it: active = GI50 up to about 1.1 µM and inactive = higher. Some results are limits rather than exact numbers.

Test systems include A549; COLO 205; DU-145; EKVX; HCT-116; HOP-62; HOP-92; HT-29; KM12; MCF7; MOLT-4; RPMI-8226; SF-295; SF-539; SK-MEL-28; SNB-75; TK-10; UACC-257; UACC-62; UO-31.
Assay in all cases: DTP human tumour cell line panel, 48 h

Consider `Nc1ncc(CN2CCOCC2)c(-c2ccccc2O)n1`, for which the GI50 in the test with A549, in the test on COLO 205, in the test on DU-145, in the test on EKVX, in the test with HCT-116 and in the test on HOP-62 was > 100 µM (inactive) in each case. The GI50 in the test with HOP-92, in the test with HT-29, with KM12, with MCF7, in the test on MOLT-4 and in the test on RPMI-8226 was > 100 µM (inactive) throughout. Besides, the GI50 in the test on SF-295, with SF-539, in the test with SK-MEL-28, in the test on SNB-75, in the test with TK-10 and with UACC-257 was > 100 µM (inactive) in each case. Further, the GI50 with UACC-62 and in the test on UO-31 was > 100 µM (inactive) each time.
As to `O/N=C(\CC(O)(C(F)(F)F)C(F)(F)F)c1cccc(Cl)c1`, the GI50 is 35.9 µM (inactive) in the test on A549; 35.6 µM (inactive) in the test with COLO 205; 40.6 µM (inactive) in the test with DU-145; 22.2 µM (inactive) in the test on EKVX; 37.4 µM (inactive) with HCT-116; 23.1 µM (inactive) with HOP-92. In addition, the GI50 is 69.2 µM (inactive) in the test on HT-29; 34.8 µM (inactive) in the test with KM12; 35 µM (inactive) with MCF7; 15.5 µM (inactive) in the test on MOLT-4; 29.9 µM (inactive) in the test on RPMI-8226; 38.7 µM (inactive) in the test with SF-295. Also, the GI50 with SF-539 is 28.6 µM (inactive); with SK-MEL-28 it was 41.1 µM (inactive); in the test on SNB-75, 18.2 µM (inactive); in the test with TK-10, 22.3 µM (inactive); with UACC-257, 35.6 µM (inactive); in the test on UACC-62, 38.9 µM (inactive).
`N=C(N)SCc1ccc(Cl)c2ccccc12.O=[N+]([O-])c1c(O)c(Cl)cc(Cl)c1Cl`: the GI50 in the test on A549 was 14.6 µM (inactive); in the test on COLO 205, 10.6 µM (inactive); in the test with DU-145, 14 µM (inactive); in the test on EKVX, 7.03 µM (inactive); with HCT-116 it was 11.8 µM (inactive); in the test on HOP-62, 11.5 µM (inactive). The GI50 is 5.89 µM (inactive) in the test with HOP-92; 10.2 µM (inactive) in the test with HT-29; 13.6 µM (inactive) in the test on KM12; 11.2 µM (inactive) with MCF7; 5.09 µM (inactive) in the test on MOLT-4; 2.64 µM (inactive) with RPMI-8226. The GI50 in the test with SF-295 was 11.6 µM (inactive); in the test with SF-539, 8.65 µM (inactive); in the test on SK-MEL-28, 14.1 µM (inactive); in the test with SNB-75 it was 11.1 µM (inactive); in the test with TK-10, 7.67 µM (inactive); in the test on UACC-257, 4.72 µM (inactive). The GI50 with UACC-62 is 13.5 µM (inactive); with UO-31, 9.98 µM (inactive).
With `COc1cc2nc3n(c(=O)c2cc1OC)-c1ccc([N+](=O)[O-])cc1C3=O`, the GI50 was 52.7 µM (inactive) in the test with A549; > 100 µM (inactive) with COLO 205; 34.6 µM (inactive) in the test on DU-145; 36.9 µM (inactive) in the test with EKVX; 34.8 µM (inactive) in the test with HCT-116; > 100 µM (inactive) in the test with HOP-62. Besides, the GI50 in the test on HOP-92 was > 100 µM (inactive); with HT-29 it was > 100 µM (inactive); in the test with KM12, 80.2 µM (inactive); in the test with MCF7 it was 11.9 µM (inactive); in the test with MOLT-4, 27.3 µM (inactive); with RPMI-8226, 28.7 µM (inactive). Moreover, the GI50 was 83.2 µM (inactive) in the test with SF-295; > 100 µM (inactive) in the test on SF-539; 3.15 µM (inactive) in the test with SK-MEL-28; 85.1 µM (inactive) in the test with SNB-75; 61.7 µM (inactive) in the test on TK-10; 60.5 µM (inactive) in the test on UACC-257. Besides, the GI50 was 30.5 µM (inactive) with UACC-62 and 11.8 µM (inactive) in the test with UO-31.
Turning to `N[C@H](C(=O)O)[C@@H]1CC(Cl)=NO1` [ACIVICIN], the 50% growth inhibitory concentration (GI50) in the test with A549 is 0.916 µM (active); in the test on COLO 205 it was 5.92 µM (inactive); in the test with DU-145, 2.48 µM (inactive); with EKVX, 2.54 µM (inactive); in the test with HCT-116 it was 0.746 µM (active); in the test on HOP-62, 1.42 µM (inactive). For the same compound, the GI50 in the test with HOP-92 was 33.2 µM (inactive); in the test on HT-29 it was 0.787 µM (active); in the test with MCF7, 0.676 µM (active); in the test on MOLT-4 it was 2.14 µM (inactive); in the test on RPMI-8226, 3.3 µM (inactive); with SF-539 it was 3.56 µM (inactive). For the same compound, the GI50 in the test with SK-MEL-28 is 4.4 µM (inactive); with SNB-75, 25.9 µM (inactive); with TK-10, 2.7 µM (inactive); with UACC-257 it was 4.8 µM (inactive); with UACC-62, 2.79 µM (inactive); with UO-31, 6.25 µM (inactive).
For `CC(=O)Oc1cc2c(c3ncccc13)OC(C)(C)C2`, the GI50 was 12.9 µM (inactive) with A549; 18.1 µM (inactive) in the test on COLO 205; 15.1 µM (inactive) with DU-145; 13.4 µM (inactive) with HCT-116; 5.85 µM (inactive) with HOP-62; 13 µM (inactive) with HOP-92. Besides, the GI50 was 15.7 µM (inactive) in the test on HT-29; 13.4 µM (inactive) in the test on KM12; 16.7 µM (inactive) with MCF7; 12.3 µM (inactive) in the test on MOLT-4; 20.3 µM (inactive) in the test with RPMI-8226; 13 µM (inactive) in the test on SF-295. Also, the GI50 is 12.1 µM (inactive) in the test with SF-539; 15.2 µM (inactive) with SK-MEL-28; 2.06 µM (inactive) in the test with SNB-75; 12.8 µM (inactive) in the test on TK-10; 15.5 µM (inactive) with UACC-257; > 100 µM (inactive) in the test with UACC-62. Further, the GI50 with UO-31 was > 100 µM (inactive).
For `S=c1nc2[nH]c3ccc(Br)cc3c2n[nH]1`, the GI50 in the test on A549 is 55 µM (inactive); with COLO 205 it was 98.4 µM (inactive); in the test with DU-145 it was 85.3 µM (inactive); in the test with EKVX it was 14.2 µM (inactive); in the test on HCT-116, 70.5 µM (inactive); in the test with HOP-92 it was > 100 µM (inactive). The GI50 in the test on HT-29 was 35 µM (inactive); in the test with KM12 it was 29.2 µM (inactive); with MCF7, 19 µM (inactive); in the test with MOLT-4 it was 30.3 µM (inactive); in the test on RPMI-8226, 37.1 µM (inactive); in the test with SF-539 it was > 100 µM (inactive). For the same compound, the GI50 is > 100 µM (inactive) in the test on SK-MEL-28; 40.4 µM (inactive) in the test with SNB-75; > 100 µM (inactive) with TK-10; 62.5 µM (inactive) in the test on UACC-257; 30.5 µM (inactive) in the test on UACC-62; 72.8 µM (inactive) in the test on UO-31.
For the compound `O=C1/C(=C\c2ccc(O)cc2)CCC/C1=C/c1ccc(Cl)c(Cl)c1`, the GI50 is 3.78 µM (inactive) with A549; 1.76 µM (inactive) in the test on COLO 205; 3.19 µM (inactive) with DU-145; 7.69 µM (inactive) in the test with EKVX; 1.89 µM (inactive) with HCT-116; 4.17 µM (inactive) in the test with HOP-62. Further, the GI50 in the test with HOP-92 is 15.6 µM (inactive); in the test on HT-29 it was 1.63 µM (inactive); with KM12 it was 1.7 µM (inactive); in the test on MCF7 it was 2.69 µM (inactive); with MOLT-4, 1.82 µM (inactive); with RPMI-8226, 2.44 µM (inactive). For the same compound, the GI50 with SF-295 is 2.65 µM (inactive); in the test with SK-MEL-28, 4.1 µM (inactive); in the test with SNB-75, 2.72 µM (inactive); with TK-10, 2.98 µM (inactive); with UACC-257, 4.19 µM (inactive); in the test with UACC-62, 2.28 µM (inactive). For the same compound, in the test with UO-31, the GI50 was 2.75 µM (inactive).
As to `CCCOc1ccc2sc(NC(=O)c3cc([N+](=O)[O-])cc([N+](=O)[O-])c3)nc2c1`, the GI50 in the test on A549 is 24.1 µM (inactive); in the test on COLO 205, 54.1 µM (inactive); in the test on DU-145, 60.7 µM (inactive); in the test on EKVX, 19.4 µM (inactive); in the test on HCT-116 it was 20.6 µM (inactive); with HOP-62, 78.9 µM (inactive). The GI50 is 16 µM (inactive) with HOP-92; 69.8 µM (inactive) in the test with HT-29; 26.8 µM (inactive) in the test with KM12; 40.2 µM (inactive) with MCF7; 36.3 µM (inactive) with MOLT-4; 31.8 µM (inactive) with RPMI-8226. Also, the GI50 is 35.6 µM (inactive) with SF-295; 29.2 µM (inactive) in the test on SF-539; 50.5 µM (inactive) with SK-MEL-28; 30.5 µM (inactive) in the test on SNB-75; 28.1 µM (inactive) in the test with TK-10; 25.5 µM (inactive) in the test with UACC-62. For the same compound, the GI50 in the test with UO-31 is 18.5 µM (inactive).
Regarding `CCOC(=S)SSSC(=S)OCC`, the GI50 was 33.7 µM (inactive) with A549; 55 µM (inactive) in the test on COLO 205; 21 µM (inactive) in the test with DU-145; 48.5 µM (inactive) in the test on EKVX; 20.8 µM (inactive) with HCT-116; 30.3 µM (inactive) with HOP-62. The GI50 with HOP-92 is > 100 µM (inactive); in the test with HT-29, 54.3 µM (inactive); in the test on KM12, 41.4 µM (inactive); in the test on MCF7 it was 28.2 µM (inactive); in the test with MOLT-4, 27.9 µM (inactive); in the test on RPMI-8226 it was 24 µM (inactive). Also, the GI50 is 51.5 µM (inactive) in the test with SF-295; 67.1 µM (inactive) in the test on SF-539; > 100 µM (inactive) in the test on SK-MEL-28; 28.2 µM (inactive) in the test on SNB-75; > 100 µM (inactive) in the test with TK-10; 50.5 µM (inactive) in the test with UACC-257. In addition, the GI50 with UACC-62 is 37.9 µM (inactive).
